Measured values: article PMC8689225, “Cardiac ryanodine receptor N-terminal region biosensors identify novel inhibitors via FRET-based high-throughput screening” (The Journal of Biological Chemistry, 2021)

Columns and labels:
mouse RyR2 NTR = target: T1, mouse RyR2 NTR (Mus musculus, UniProt E9Q401, K30C/K441C, form not given); test: FLT-FRET dose-response with AC-NTR biosensor; type: binding
T1 sequence (E9Q401 1-547 K30C/K441C): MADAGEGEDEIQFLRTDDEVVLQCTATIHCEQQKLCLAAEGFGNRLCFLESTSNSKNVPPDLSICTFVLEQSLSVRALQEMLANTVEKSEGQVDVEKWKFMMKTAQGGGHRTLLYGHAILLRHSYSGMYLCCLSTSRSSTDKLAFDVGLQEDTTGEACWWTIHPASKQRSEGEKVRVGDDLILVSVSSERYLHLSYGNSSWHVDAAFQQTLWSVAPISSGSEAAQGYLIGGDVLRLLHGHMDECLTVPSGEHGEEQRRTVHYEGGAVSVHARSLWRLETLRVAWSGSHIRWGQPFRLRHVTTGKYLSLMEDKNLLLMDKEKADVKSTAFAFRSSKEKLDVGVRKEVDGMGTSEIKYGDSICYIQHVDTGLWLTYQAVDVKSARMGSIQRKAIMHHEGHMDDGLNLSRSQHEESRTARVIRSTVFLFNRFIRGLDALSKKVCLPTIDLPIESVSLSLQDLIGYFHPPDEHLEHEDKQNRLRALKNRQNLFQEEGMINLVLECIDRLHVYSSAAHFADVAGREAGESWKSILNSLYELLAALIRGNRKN
Source text: The NTR of mouse RyR2 (residues 1–547) was cloned and expressed as previously described ([27]). The DNA construct contains a 6×His tag, a maltose-binding protein (MBP) tag, and a tobacco etch virus (TEV) protease cleavage site. The seven native solvent-exposed cysteine residues were substituted with alanine residues, and two constructs were engineered with Cys substitutions at surface residues R383 and K441 (in the B and C domains, respectively; termed BC) and at K30 and K441 (in the A and C domains, respectively; termed AC) for labeling with spectroscopic probes such as appropriate donor–acceptor fluorophores for FRET (for the purpose of this report, these are considered the WT forms of AC and BC). A variant of the BC construct corresponding to the disease-associated mutant (R420Q) was also prepared. For this site-directed mutagenesis work, we used the QuikChange (Stratagene) and Phusion High-Fidelity PCR (Thermo Fisher Scientific) kits. The WT-NTR, R420Q-NTR, AC- and BC-NTR, AC- and BC-R420Q-NTR protein constructs were expressed in Escherichia coli Rosetta (DE3) pLacI cells at 18 °C and purified with a protocol adapted from previously published work ([26]). An amylose column was first applied after the cells were lysed by ultrasonication. The protein in the elution was then cleaved using TEV protease. The cleaved crude protein went through the second amylose column to separate from the MBP and then followed by a Superdex S-200 size exclusion column in a buffer consisting of 250 mM KCl, 10 mM HEPES, and 14 mM β-mercaptoethanol (pH 7.4). The NTR protein (3 μM) was then incubated in 10 mM HEPES, 250 mM KCl (pH 7.4, 2 h, 21 °C) with the fluorescent probes Alexa Fluor 488 maleimide (AF488, donor; 40 μM) and Alexa Fluor 568 maleimide (AF568, acceptor; 60 μM). The maleimide of the dye reacts with the thiols the Cys residues engineered into NTR, forming a covalently labeled protein. The Alexa dyes were added last to the reaction mixture, from 10 mM DMSO stock solutions. This reaction is not selective to one site (K30C or K441C), and we anticipate that there is a mixed population with K30C or K441C labeled with either AF488 (donor) or AF568 (acceptor). We focused on maximizing the fraction containing donor–acceptor pairs, thus maximizing FRET efficiency and the precision for detecting a change in structure as an indication that a compound interacts with the NTR biosensor. The labeling efficiency was determined by comparing the molar concentration of the bound dye, determined from UV-Vis absorbance, to the protein concentration, determined from gel densitometry. Essentially complete labeling was confirmed from electrospray ionization mass spectrometry. CD spectra of the WT-NTR and mutant R420Q-NTR constructs before and after labeling were recorded using a JASCO J-815 CD spectrometer (JASCO), confirming similar folding (Fig. S1).
The 1536-well assay plates were prepared as described in our previous reports ([21]). The LOPAC (Sigma-Aldrich) collection received in 96-well plates was reformatted into 384-well polypropylene intermediate plates (Greiner Bio-One) using a multichannel liquid handler, BioMek FX (Beckman Coulter), then transferred to 384-well Echo Qualified source plates (Labcyte Inc). Assay plates were prepared as previously described ([20]). On screening days, these plates were thawed out and were loaded with labeled NTR (5 μl, 20 nM final concentration) using a Multidrop Combi automated sample dispenser.
HTS measurements were conducted in a prototype top-read FLT plate reader (FLT-PR, Fluorescence Innovations, Inc), which reads each 1536-well plate in ∼3 min ([63], [64]). AF488 donor fluorescence was excited with a 473 nm microchip laser from Concepts Research Corporation, and the emission signal was split into two channels by a dichroic mirror and acquired with 517 ± 10 nm (channel 1) and 535 ± 7 nm band-pass filters (channel 2) (Semrock). […]

RyR2 = target: T2, RyR2 (Sus scrofa, UniProt A0A5G2R1W3); test: [3H]ryanodine binding to cardiac SR (CSR) vesicles; type: biochemical, pig
T2 construct: from tissue; host or cells: porcine cardiac left ventricle, crude SR vesicles
Protocol: (§1) Crude sarcoplasmic reticulum membrane vesicles were isolated from porcine longissimus dorsi muscle and porcine cardiac left ventricle tissue by differential centrifugation of homogenized tissue, as established previously ([65]). Skeletal heavy SR (HSR) vesicles, which are enriched with RyR1, were isolated by fractionation of crude skeletal SR vesicles using a discontinuous sucrose gradient, in accordance with our published work ([65]). All vesicles were flash-frozen and stored at −80 °C.
(§2) In 96-well plates, skeletal SR membranes (HSR, 1 mg/ml) and cardiac SR membranes (CSR, 3 mg/ml) were preincubated with 1% DMSO or hit compound for 30 min at 22 °C in a solution containing 150 mM KCl, 5 mM GSH, 1 μg/ml Aprotinin/Leupeptin, 1 mM EGTA, and 65 μM or 1.02 mM CaCl2 (as determined by MaxChelator to yield 30 nM or 30 μM of free Ca^2+, respectively), 0.1 mg/ml of BSA, and 20 mM K-PIPES (pH 7.0). Nonspecific [^3H]ryanodine binding to SR was assessed by addition of 40 μM nonradioactively labeled ryanodine. Maximal [^3H]ryanodine binding was assessed by addition of 5 mM adenylyl-imidodiphosphate (AMP-PNP), and in the case of CSR, 20 mM caffeine was added. These control samples were each loaded over four wells per plate. Binding of [^3H]ryanodine (7.5 and 10 nM for CSR and HSR, respectively) was determined following a 3 h incubation at 37 °C and filtration through grade GF/B glass microfiber filters (Brandel Inc) using a Brandel Harvester. In 4 ml of Ecolite scintillation cocktail (MP biomedicals), [^3H]ryanodine retained on the filter was counted using a Beckman LS6000 scintillation counter.

RyR1 [1] = target: T3, RyR1 (Sus scrofa, UniProt P16960); test: [3H]ryanodine binding to skeletal SR (HSR) vesicles; type: biochemical, pig; conditions: for EC50: EC50, [3H]ryanodine binding, skeletal HSR, Table S4
T3 construct: from tissue; host or cells: porcine longissimus dorsi muscle, heavy SR vesicles
T3 sequence (P16960 whole entry): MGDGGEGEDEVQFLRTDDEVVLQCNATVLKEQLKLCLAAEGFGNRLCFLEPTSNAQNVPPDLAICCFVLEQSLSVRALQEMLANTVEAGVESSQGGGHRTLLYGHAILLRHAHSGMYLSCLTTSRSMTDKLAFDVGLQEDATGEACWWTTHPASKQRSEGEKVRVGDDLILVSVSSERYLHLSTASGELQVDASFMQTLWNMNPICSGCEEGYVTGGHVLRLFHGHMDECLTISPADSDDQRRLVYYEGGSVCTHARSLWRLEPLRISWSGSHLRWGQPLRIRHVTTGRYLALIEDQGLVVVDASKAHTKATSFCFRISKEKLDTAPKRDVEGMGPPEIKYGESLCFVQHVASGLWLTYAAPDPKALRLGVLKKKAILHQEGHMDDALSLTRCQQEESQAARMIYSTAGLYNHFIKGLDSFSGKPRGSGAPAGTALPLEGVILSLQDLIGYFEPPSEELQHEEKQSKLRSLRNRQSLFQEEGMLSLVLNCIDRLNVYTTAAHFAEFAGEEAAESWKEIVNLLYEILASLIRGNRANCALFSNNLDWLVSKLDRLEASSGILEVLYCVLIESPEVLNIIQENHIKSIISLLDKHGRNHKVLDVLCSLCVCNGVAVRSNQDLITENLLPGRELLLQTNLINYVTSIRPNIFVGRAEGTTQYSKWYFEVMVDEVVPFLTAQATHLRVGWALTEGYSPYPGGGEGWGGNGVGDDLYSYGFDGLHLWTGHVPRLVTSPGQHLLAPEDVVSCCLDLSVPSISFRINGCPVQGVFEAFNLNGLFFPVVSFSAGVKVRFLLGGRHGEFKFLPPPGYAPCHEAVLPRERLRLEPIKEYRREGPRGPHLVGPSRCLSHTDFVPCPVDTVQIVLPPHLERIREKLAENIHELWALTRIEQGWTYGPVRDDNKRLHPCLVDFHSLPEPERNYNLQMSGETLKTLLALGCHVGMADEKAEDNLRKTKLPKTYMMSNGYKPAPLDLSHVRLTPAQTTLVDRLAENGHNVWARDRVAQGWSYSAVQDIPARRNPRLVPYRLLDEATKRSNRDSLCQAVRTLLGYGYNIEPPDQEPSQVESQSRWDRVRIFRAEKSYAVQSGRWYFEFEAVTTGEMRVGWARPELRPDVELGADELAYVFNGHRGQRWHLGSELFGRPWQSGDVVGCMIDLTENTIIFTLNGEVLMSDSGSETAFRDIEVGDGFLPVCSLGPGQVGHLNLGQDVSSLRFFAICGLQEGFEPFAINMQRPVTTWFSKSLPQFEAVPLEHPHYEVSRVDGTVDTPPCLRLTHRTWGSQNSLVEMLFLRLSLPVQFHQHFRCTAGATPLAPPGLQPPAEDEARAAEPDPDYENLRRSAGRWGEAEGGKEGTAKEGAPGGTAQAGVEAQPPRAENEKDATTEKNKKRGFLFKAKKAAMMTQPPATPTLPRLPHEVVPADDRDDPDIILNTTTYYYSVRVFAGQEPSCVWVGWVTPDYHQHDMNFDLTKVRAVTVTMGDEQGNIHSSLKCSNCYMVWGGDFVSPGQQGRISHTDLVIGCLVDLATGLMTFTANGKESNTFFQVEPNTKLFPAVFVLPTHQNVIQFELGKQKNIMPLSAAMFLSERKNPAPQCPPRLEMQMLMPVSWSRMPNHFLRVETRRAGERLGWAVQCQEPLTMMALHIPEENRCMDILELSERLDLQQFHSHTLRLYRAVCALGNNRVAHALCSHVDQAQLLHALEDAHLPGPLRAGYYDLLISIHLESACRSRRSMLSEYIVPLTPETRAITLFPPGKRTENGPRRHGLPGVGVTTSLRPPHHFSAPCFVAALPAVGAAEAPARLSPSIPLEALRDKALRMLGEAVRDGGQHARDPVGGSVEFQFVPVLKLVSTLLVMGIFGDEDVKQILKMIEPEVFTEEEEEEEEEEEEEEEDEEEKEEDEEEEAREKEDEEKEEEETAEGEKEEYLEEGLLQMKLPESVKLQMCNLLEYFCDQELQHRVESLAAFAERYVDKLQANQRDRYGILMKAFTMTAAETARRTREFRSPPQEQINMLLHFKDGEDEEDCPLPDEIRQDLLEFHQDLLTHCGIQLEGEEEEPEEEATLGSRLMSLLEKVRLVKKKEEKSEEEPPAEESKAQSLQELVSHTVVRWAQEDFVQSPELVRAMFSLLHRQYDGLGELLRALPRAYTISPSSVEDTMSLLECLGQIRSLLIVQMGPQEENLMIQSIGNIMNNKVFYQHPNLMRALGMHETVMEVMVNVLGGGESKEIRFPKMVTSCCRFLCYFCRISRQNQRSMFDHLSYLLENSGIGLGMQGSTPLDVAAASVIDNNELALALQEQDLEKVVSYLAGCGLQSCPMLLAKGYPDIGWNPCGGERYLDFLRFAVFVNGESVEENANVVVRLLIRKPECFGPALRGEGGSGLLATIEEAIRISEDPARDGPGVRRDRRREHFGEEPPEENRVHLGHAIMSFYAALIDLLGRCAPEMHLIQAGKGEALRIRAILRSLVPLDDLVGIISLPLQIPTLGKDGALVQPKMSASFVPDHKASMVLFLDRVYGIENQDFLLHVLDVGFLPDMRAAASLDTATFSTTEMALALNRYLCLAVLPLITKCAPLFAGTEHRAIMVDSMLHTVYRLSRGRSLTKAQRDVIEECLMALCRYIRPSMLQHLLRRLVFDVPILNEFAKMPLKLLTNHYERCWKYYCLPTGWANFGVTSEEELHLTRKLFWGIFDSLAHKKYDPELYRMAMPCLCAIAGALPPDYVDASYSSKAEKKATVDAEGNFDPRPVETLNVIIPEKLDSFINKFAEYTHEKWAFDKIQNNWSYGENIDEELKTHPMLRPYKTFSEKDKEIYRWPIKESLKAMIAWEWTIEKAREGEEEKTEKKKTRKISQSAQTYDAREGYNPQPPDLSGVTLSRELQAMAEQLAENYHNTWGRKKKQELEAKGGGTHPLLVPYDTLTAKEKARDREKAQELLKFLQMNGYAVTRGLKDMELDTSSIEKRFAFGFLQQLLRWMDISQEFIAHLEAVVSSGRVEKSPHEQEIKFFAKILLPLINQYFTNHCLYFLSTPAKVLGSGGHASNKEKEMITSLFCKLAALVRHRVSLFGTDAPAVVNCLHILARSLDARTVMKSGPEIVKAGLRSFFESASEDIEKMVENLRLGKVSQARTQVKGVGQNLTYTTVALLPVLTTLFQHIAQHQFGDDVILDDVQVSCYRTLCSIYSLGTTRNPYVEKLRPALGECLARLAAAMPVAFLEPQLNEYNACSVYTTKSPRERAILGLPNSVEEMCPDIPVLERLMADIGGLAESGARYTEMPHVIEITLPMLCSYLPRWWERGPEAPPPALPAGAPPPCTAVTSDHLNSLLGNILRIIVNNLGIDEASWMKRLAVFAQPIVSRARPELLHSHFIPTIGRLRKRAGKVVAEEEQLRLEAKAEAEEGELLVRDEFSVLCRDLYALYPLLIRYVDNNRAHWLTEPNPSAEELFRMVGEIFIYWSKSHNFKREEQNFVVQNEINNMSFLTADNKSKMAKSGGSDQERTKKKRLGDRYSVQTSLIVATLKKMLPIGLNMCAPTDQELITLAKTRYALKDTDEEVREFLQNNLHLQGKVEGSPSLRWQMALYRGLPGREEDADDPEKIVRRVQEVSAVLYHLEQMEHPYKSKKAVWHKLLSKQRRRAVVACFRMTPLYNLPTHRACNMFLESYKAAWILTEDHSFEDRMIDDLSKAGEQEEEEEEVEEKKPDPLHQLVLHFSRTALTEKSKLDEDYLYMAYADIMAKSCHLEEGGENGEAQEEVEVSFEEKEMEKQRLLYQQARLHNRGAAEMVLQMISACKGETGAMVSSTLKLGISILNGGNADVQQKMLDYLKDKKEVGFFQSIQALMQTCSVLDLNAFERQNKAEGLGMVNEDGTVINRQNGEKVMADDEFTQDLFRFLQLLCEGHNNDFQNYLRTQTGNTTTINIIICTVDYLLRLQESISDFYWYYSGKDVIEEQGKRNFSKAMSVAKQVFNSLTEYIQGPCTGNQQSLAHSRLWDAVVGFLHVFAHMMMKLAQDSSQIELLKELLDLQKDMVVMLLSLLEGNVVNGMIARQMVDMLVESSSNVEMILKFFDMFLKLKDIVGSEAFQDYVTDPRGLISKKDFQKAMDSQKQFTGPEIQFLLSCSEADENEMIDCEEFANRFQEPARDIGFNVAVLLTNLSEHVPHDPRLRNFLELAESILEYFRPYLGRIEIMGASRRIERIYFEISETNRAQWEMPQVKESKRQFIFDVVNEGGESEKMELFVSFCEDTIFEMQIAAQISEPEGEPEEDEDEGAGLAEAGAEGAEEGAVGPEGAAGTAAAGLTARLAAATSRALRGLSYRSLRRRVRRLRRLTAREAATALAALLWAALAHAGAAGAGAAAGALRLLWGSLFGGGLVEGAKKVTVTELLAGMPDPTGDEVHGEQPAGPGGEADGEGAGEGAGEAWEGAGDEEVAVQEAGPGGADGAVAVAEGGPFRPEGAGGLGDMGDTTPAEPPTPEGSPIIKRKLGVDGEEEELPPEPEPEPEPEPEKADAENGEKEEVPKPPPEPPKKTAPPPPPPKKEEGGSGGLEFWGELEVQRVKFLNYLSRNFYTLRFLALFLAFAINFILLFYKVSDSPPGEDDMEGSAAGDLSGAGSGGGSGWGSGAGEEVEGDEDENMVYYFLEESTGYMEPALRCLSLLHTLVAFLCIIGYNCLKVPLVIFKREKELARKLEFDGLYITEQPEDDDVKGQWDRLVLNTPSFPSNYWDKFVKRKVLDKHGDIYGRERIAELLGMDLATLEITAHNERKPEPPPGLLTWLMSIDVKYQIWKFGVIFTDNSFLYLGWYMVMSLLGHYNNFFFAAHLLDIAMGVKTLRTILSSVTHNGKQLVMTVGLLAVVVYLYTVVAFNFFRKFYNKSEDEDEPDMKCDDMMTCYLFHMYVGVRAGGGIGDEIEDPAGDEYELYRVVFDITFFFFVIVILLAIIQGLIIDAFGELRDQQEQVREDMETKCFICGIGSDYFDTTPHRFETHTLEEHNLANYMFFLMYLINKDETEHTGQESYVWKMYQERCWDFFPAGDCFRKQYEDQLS
Protocol: as §1, §2

α2-adrenergic receptors = system: α2-adrenergic receptors; design: method as in PMID 7969082; conditions: cited from earlier work
RyR1 [2] = target: T4, RyR1 (Rattus norvegicus, UniProt F1LMY4); test: t-tubule Ca2+ measurement of RyR1 leak in skinned skeletal muscle fibers; type: cell-based; conditions: 10 μM FA or 1 mM tetracaine, [Ca2+]cyto 200 nM
T4 construct: from tissue; host or cells: Wistar rat extensor digitorum longus (EDL), mechanically skinned single fibres
Protocol: All experimental methods using rodents were approved by the Animal Ethics Committees at The University of Queensland and were performed in accordance with the relevant guidelines and regulations. Five-month-old Wistar rats (UQ Biological Resources) were euthanized by asphyxiation via CO2 exposure, and the extensor digitorum longus (EDL) was rapidly excised. Once dissected, muscles were pinned to Sylgard set in a Petri dish containing paraffin oil.
Bundles of fibers were isolated and exposed to an internal solution containing rhod-5N, as described previously ([47]). After 15 min incubation, single skeletal muscle fibers were mechanically skinned and mounted in a custom-made chamber. […] For tracking Ca^2+ movements across the t-system membrane, images were continuously recorded in xyt mode with an aspect ratio of 256 × 512, with the long aspect of the image parallel with that of the preparation. Temporal resolution of imaging in this mode where the fluorescence signal was within the borders of the fiber was 0.8 s.
T-system rhod-5N fluorescence was converted to [Ca^2+]t-sys as previously described ([47]). To determine the effect of RyR modulators on the RyR Ca^2+ leak, isolated mechanically skinned fibers were continuously imaged as described above, to obtain a record of t-system rhod-5N fluorescence changes over time as the cytoplasmic solution bathing the fiber was changed. […]

[3] = system: rat skeletal muscle fibers; test: Electrically evoked Ca2+ transients in skinned skeletal muscle fibers; type: cell-based; conditions: 10 μM FA or 1 mM tetracaine, 1 Hz
Source text: Mechanically skinned fibers were isolated, mounted in a custom chamber, and bathed in a resting physiological solution containing rhod-2, as previously described ([21]). The Ca^2+-sensitive dye rhod-2 was used to track cytosolic Ca^2+ transients when exposed to electrical stimulation. Field pulses at 1 Hz frequency and 4 ms in duration were applied across platinum electrodes parallel to the long axis of the fiber. Imaging for electrical stimulation experiments was in xt mode, at a rate of 2 ms.line^−1. DMSO vehicle (0.01%), FA (10 μM), and tetracaine were added to the physiological solution. Each treatment was applied precisely at the seventh successive Ca^2+ transient.

Row | Structure (SMILES) | ΔFLT (mouse RyR2 NTR; AC-NTR biosensor, 0 to 100 μM, CPNQ/corbadrine decrease FLT, FA/tacrolimus increase FLT) | EC50 relative to CPNQ (fold higher) (mouse RyR2 NTR; FRET dose-response) | EC50 (mouse RyR2 NTR; read-out: EC50, FRET dose-response, AC-NTR biosensor, Hill fit, Table S4) | EC50 (RyR2) | effect on [3H]ryanodine binding to RyR2 (RyR2; cardiac SR, 30 μM Ca2+) | EC50 (RyR1 [1]; [Ca2+] 30 nM) | EC50 (RyR1 [1]; [Ca2+], 30 µM) | maximum inhibitory effect on [3H]ryanodine binding (RyR1 [1]; skeletal SR, 30 nM Ca2+) | effect on [3H]ryanodine binding to RyR1 (RyR1 [1]; skeletal SR, 30 μM Ca2+) | binding affinity for α2-adrenergic receptors (α2-adrenergic receptors) | steady-state [Ca2+]t-sys (RyR1 leak) (RyR1 [2]) | electrically induced Ca2+ transient amplitude [3]
1 | C[C@H](N)[C@H](O)c1ccc(O)c(O)c1 [corbadrine, 4-[(1R,2S)-2-amino-1-hydroxypropyl]benzene-1,2-diol] | ≈ 0.35 ns | ~3 fold | 3.6 µM | 0.01 µM | slight activation at high concentrations | 0.02 µM | 15.3 µM | ~70% | strongly increased | very high binding affinity | – | –
2 | CCCCNc1ccc(C(=O)OCCN(C)C)cc1 [tetracaine] | – | – | – | – | – | – | – | – | – | – | full RyR inhibition | significantly decreased
